In ChEMBL document CHEMBL3580552, “Antiplasmodial and Cytotoxic Triterpenoids from the Bark of the Cameroonian Medicinal Plant Entandrophragma congoënse” (J Nat Prod, 2015):

Tests used:
Plasmodium falciparum = experiment: Antiplasmodial activity against chloroquine-sensitive erythrocytic stage Plasmodium falciparum NF54 assessed as [3H]hypoxanthine incorporation after 48 to 72 hrs by Betaplate liquid scintillation counting; assay type: functional, organism-based
L6 = experiment: Cytotoxicity against rat L6 cells after 72 hrs by Alamar blue assay; assay type: cell-based; conditions: L6, 72 h
[1] = Selectivity index, ratio of IC50 for rat L6 cells to IC50 for erythrocytic stages of Plasmodium falciparum NF54; assay type: toxicity, cell-based; conditions: read-out: Ratio IC50

Row | SMILES | IC50 (Plasmodium falciparum) | IC50 (L6; read-out: IC50) | selectivity ratio [1] | IC50 (L6)
1 | CC(C)=CC(=O)O[C@H]1CC[C@]2(C)[C@H]3CC[C@]45C[C@]4(CC[C@H]5[C@@H]4C[C@H]([C@H](O)C(C)(C)O)O[C@H]4O)[C@]3(C)[C@H](O)C[C@H]2C1(C)C | 1.4 µM | 6.5 µM | 4.4 | –
2 | CC(C)(O)[C@H](O)[C@H]1C[C@@H]([C@@H]2CC=C3[C@]4(C)[C@H](O)C[C@H]5C(C)(C)C(=O)C=C[C@]5(C)[C@H]4CC[C@]32C)C(=O)O1 | 1.3 µM | 32.3 µM | 25.2 | –
3 | CC(=O)O[C@@H]1C[C@H]2C(C)(C)C(=O)C=C[C@]2(C)[C@H]2CC[C@]3(C)C(=CC[C@H]3[C@@H]3C[C@H]([C@@H]4OC4(C)C)OC3=O)[C@@]21C | 0.44 µM | 5.3 µM | 12.1 | –
4 | C=C(C)[C@@H]1CC=C2[C@H](CC[C@@]3(C)[C@H]([C@@H](C)CC(O)C(O)C(C)(C)O)CC[C@]23C)[C@@]1(C)CCC(=O)O (stereo partly drawn) | 19.3 µM | 56.1 µM | 2.9 | –
5 | COc1cc([C@@H]2c3cc4c(cc3[C@H](O)[C@H]3COC(=O)[C@H]23)OCO4)cc(OC)c1OC [PODOFILOX] | – | – | – | 0.012 µM
6 | CO[C@@H]1O[C@@H]([C@H](O)C(C)(O)CO)C[C@H]1[C@@H]1CC[C@]23C[C@]12CC[C@@H]1[C@@]2(C)CC[C@H](OC(=O)C=C(C)C)C(C)(C)[C@@H]2C[C@@H](O)[C@]13C (stereo partly drawn) | 1.3 µM | 11.9 µM | 9 | –
7 | CC(C)=CC(=O)O[C@H]1CC[C@]2(C)[C@H]3CC[C@]45C[C@]4(CC[C@H]5[C@@H]4C[C@H]([C@@H]5O[C@@]5(C)CO)O[C@H]4O)[C@]3(C)[C@H](O)C[C@H]2C1(C)C | 1.3 µM | 8.6 µM | 6.8 | –
8 | CC(=O)O[C@@H]1C[C@H]2C(C)(C)C(=O)C=C[C@]2(C)[C@H]2CC[C@]3(C)C(=CC[C@H]3[C@@H]3C[C@H]([C@H](O)C(C)(C)O)OC3=O)[C@@]21C | 0.67 µM | 70.6 µM | 105 | –
9 | CC(=O)O[C@@H]1C[C@H]2C(C)(C)[C@H](O)CC[C@]2(C)[C@H]2CC[C@]3(C)C(=CC[C@H]3[C@@H]3C[C@H]([C@H](O)C(C)(C)O)OC3=O)[C@@]21C | 2 µM | 42.4 µM | 21 | –
10 | CC(=O)O[C@@H]1CC[C@]2(C)[C@H]3CC[C@]4(C)C(=CC[C@H]4[C@@H]4C[C@H]([C@H](O)C(C)(C)O)OC4=O)[C@]3(C)[C@H](OC(C)=O)C[C@H]2C1(C)C | 0.87 µM | 11 µM | 12.7 | –
